Here are results for 9 molecules from patent US20080132509A1, “Substituted Biaryl Analogues” (Neurogen Corporation, priority 2004, published 2008).

pEC50, pIC50, pKi: −log10 of the molar value.

Chain of VR (Q8NER1 whole entry): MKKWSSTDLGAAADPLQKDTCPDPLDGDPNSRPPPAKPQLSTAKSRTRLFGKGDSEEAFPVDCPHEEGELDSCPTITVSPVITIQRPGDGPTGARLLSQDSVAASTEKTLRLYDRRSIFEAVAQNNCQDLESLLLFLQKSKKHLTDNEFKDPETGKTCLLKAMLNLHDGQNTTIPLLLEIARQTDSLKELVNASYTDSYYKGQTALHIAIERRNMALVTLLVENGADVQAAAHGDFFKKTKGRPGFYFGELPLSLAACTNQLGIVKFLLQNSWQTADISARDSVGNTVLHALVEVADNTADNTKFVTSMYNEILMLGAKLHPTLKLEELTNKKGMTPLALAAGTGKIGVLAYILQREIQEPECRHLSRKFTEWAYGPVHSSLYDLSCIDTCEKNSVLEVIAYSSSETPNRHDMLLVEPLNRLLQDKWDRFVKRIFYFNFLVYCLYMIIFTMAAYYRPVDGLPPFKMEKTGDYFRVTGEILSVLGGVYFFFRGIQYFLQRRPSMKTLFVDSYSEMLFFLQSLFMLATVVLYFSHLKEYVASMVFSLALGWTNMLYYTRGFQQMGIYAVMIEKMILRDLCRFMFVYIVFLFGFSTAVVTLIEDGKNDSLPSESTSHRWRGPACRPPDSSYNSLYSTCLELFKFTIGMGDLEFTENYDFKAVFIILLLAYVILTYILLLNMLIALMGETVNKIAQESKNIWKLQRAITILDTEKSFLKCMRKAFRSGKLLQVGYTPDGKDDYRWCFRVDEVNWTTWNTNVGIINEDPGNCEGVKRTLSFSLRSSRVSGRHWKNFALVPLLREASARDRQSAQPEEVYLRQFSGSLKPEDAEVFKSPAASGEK

The first experiment addresses VR (Homo sapiens, UniProt Q8NER1).
Assay: not given
As to conditions: typically; no more than moderate affinity; cited from earlier work.
A word on the pKi: it is the negative decadic logarithm of the Ki, by convention in mol/L. As for `Cl.Cl.Cl.Cl.Cl.Cl.N.N.N.N.N.N.N.N.N.N.N.N.N.N.[O-2].[O-2].[Ru+3].[Ru+3].[Ru+4]` [ruthenium red], the pKi is no more than 3.85.

The target in a further experiment is T1, human capsaicin receptor (Homo sapiens, UniProt Q8NER1).
T1 construct: expressed in transfected cells
T1 sequence (Q8NER1 whole entry): as above
Description: Calcium mobilization assay, determination of antagonist activity. It counts as cell-based. Conditions: cells expressing human capsaicin receptor, capsaicin at EC50, FLUO-3 fluorescence; read-out: IC50 (antag.). The procedure:
(§1) A cDNA encoding full length human capsaicin receptor (SEQ ID NO: 1, 2 or 3 of U.S. Pat. No. 6,482,611) was subcloned in the plasmid pBK-CMV (Stratagene, La Jolla, Calif.) for recombinant expression in mammalian cells.
(§2) Human embryonic kidney (HEK293) cells were transfected with the pBK-CMV expression construct encoding the full length human capsaicin receptor using standard methods. The transfected cells were selected for two weeks in media containing G418 (400 μg/ml) to obtain a pool of stably transfected cells. Independent clones were isolated from this pool by limiting dilution to obtain clonal stable cell lines for use in subsequent experiments.
(§3) Cells transfected with expression plasmids (as described in Example 4) and thereby expressing human capsaicin receptor are seeded and grown to 70-90% confluency in FALCON black-walled, clear-bottomed 96-well plates (#3904, BECTON-DICKINSON, Franklin Lakes, N.J.). The culture medium is emptied from the 96 well plates and FLUO-3 AM calcium sensitive dye (Molecular Probes, Eugene, Oreg.) is added to each well (dye solution: 1 mg FLUO-3 AM, 440 μL DMSO and 440 μ20% pluronic acid in DMSO, diluted 1:250 in Krebs-Ringer HEPES (KRH) buffer (25 mM HEPES, 5 mM KCl, 0.96 mM NaH2PO4, 1 mM MgSO4, 2 mM CaCl2, 5 mM glucose, 1 mM probenecid, pH 7.4), 50 μl diluted solution per well). Plates are covered with aluminum foil and incubated at 37° C. for 1-2 hours in an environment containing 5% CO2. After the incubation, the dye is emptied from the plates, and the cells are washed once with KRH buffer, and resuspended in KRH buffer.
To measure the ability of a test compound to agonize or antagonize a calcium mobilization response in cells expressing capsaicin receptors to capsaicin or other vanilloid agonist, the EC50 of the agonist capsaicin is first determined. An additional 20 μl of KRH buffer and 1 μl DMSO is added to each well of cells, prepared as described above. 100 μl capsaicin in KRH buffer is automatically transferred by the FLIPR instrument to each well. Capsaicin-induced calcium mobilization is monitored using either FLUOROSKAN ASCENT (Labsystems; Franklin, Mass.) or FLIPR (fluorometric imaging plate reader system; Molecular Devices, Sunnyvale, Calif.) instruments. Data obtained between 30 and 60 seconds after agonist application are used to generate an 8-point concentration response curve, with final capsaicin concentrations of 1 nM to 3 μM. KALEIDAGRAPH software (Synergy Software, Reading, Pa.) is used to fit the data to the equation: […]
to determine the 50% excitatory concentration (EC50) for the response. In this equation, y is the maximum fluorescence signal, x is the concentration of the agonist or antagonist (in this case, capsaicin), a is the Emax, b corresponds to the EC50 value and c is the Hill coefficient.
Test compounds are dissolved in DMSO, diluted in 20 μl KRH buffer so that the final concentration of test compounds in the assay well is between 1 μM and 5 μM, and added to cells prepared as described above. The 96 well plates containing prepared cells and test compounds are incubated in the dark, at room temperature for 0.5 to 6 hours. It is important that the incubation not continue beyond 6 hours. Just prior to determining the fluorescence response, 100 μl capsaicin in KRH buffer at twice the EC50 concentration determined as described above is automatically added by the FLIPR instrument to each well of the 96 well plate for a final sample volume of 200 μl and a final capsaicin concentration equal to the EC50. The final concentration of test compounds in the assay wells is between 1 μM and 5 μM. […] The concentration of antagonist required to provide a 50% decrease, relative to the response observed in the presence of capsaicin and without antagonist, is the IC50 for the antagonist, and is preferably below 1 micromolar, 100 nanomolar, 10 nanomolar or 1 nanomolar.
The term pIC50 denotes the negative decadic logarithm of the IC50, by convention in mol/L. Take `Fc1ccc(-c2cc(-c3ccc(-c4ncccc4C(F)(F)F)cc3)nc(N3CCOCC3)n2)cc1Cl` [Compound 9, 4-(4-(3-chloro-4-fluorophenyl)-6-{4-[3-(trifluoromethyl)pyridin-2-yl]phenyl}pyrimidin-2-yl)morpholine]: the pIC50 was greater than 6.00.
In the case of `CC1CCCN1c1nc(-c2ccc(F)cc2)cc(-c2ccc(N3CCC(C(=O)O)CC3)nc2)n1` (stereo not shown) [Compound 3, 1-{5-[6-(4-fluorophenyl)-2-(2-methylpyrrolidin-1-yl)pyrimidin-4-yl]pyridin-2-yl}piperidine-4-carboxylicacid], the pIC50 was greater than 6.00.
Still for that read-out and setting: as for `CC1CCCN1c1nc(-c2ccc(F)cc2)cc(-c2ccc(N3CCC(O)CC3)nc2)n1` (stereo not shown) [Compound 1, 1-{5-[6-(4-fluorophenyl)-2-(2-methylpyrrolidin-1-yl)pyrimidin-4-yl]pyridin-2-yl}piperidin-4-ol], the figure is greater than 6.00; as for `Fc1ccc(-c2cc(-c3ccc(-c4ncccc4C(F)(F)F)nc3)nc(N3CCOCC3)n2)cc1Cl` [Compound 5, 5′-[6-(3-chloro-4-fluorophenyl)-2-morpholin-4-ylpyrimidin-4-yl]-3-(trifluoromethyl)-2,2′-bipyridine], greater than 6.00; as for `Cc1cccnc1-c1ccc(-c2cc(-c3ccc(F)c(Cl)c3)nc(N3CCOCC3)n2)cn1` [Compound 6, 5′-[6-(3-chloro-4-fluorophenyl)-2-morpholin-4-ylpyrimidin-4-yl]-3-methyl-2,2′-bipyridine], greater than 6.00.
Same read-out and setting: in the case of `Nc1nc(-c2ccc(-c3ncccc3C(F)(F)F)cc2)cc(-c2ccc(F)c(Cl)c2)n1` [Compound 8, 4-(3-chloro-4-fluorophenyl)-6-{4-[3(trifluoromethyl)pyridin-2-yl]phenyl}pyrimidin-2-amine] it was greater than 6.00.

In the next experiment the target is T1, human capsaicin receptor. Description: Calcium mobilization assay, determination of agonist activity. It counts as cell-based. Conditions: cells expressing human capsaicin receptor, no capsaicin added, FLUO-3 fluorescence. How it is done: as §1, §2
as §3, with “After the incubation, the dye is emptied from the plates, and the cells are washed once with KRH buffer, and resuspended in KRH buffer.” left out
The ability of a test compound to act as an agonist of the capsaicin receptor is determined by measuring the fluorescence response of cells expressing capsaicin receptors elicited by the compound as function of compound concentration. […] The extent of efficacy of each test compound is also determined by calculating the response elicited by a concentration of test compound (typically 1 μM) relative to the response elicited by 100 nM capsaicin. This value, called Percent of Signal (POS), is calculated by the following equation: […]
Usually pEC50 stands for the EC50 on a negative log10 scale, so that one unit is a factor of ten. Regarding `CC1CCCN1c1nc(-c2ccc(F)cc2)cc(-c2ccc(N3CCC(O)CC3)nc2)n1` (stereo not shown) [Compound 1, 1-{5-[6-(4-fluorophenyl)-2-(2-methylpyrrolidin-1-yl)pyrimidin-4-yl]pyridin-2-yl}piperidin-4-ol], the pEC50 was greater than 6.00.
Consider `CC1CCCN1c1nc(-c2ccc(F)cc2)cc(-c2ccc(N3CCC(CO)CC3)nc2)n1` (stereo not shown) [Compound 7, (1-{5-[6-(4-fluorophenyl)-2-(2-methylpyrrolidin-1-yl)pyrimidin-4-yl]pyridin-2-yl}piperidin-4-yl)methanol], for which the pEC50 is greater than 6.00.
On the same count and under the same terms, in the case of `CC1CCCN1c1nc(-c2ccc(F)cc2)cc(-c2ccc(N3CCC(C(N)=O)CC3)nc2)n1` (stereo not shown) [Compound 4, 1-{5-[6-(4-fluorophenyl)-2-(2-methylpyrrolidin-1-yl)pyrimidin-4-yl]pyridin-2-yl}piperidine-4-carboxamide] it was greater than 6.00.
